Experimental data: patent publication US11384079B2, “6-5 fused rings as C5a inhibitors” (CHEMOCENTRYX, INC., priority 2017, dated 2022)

Target: T1, C5aR (Homo sapiens, UniProt P21730)
T1 construct: U937 cells are a monocytic cell line which express C5aR; host or cells: U937 cells (cAMP treated) or isolated neutrophils
T1 sequence (P21730 1-350): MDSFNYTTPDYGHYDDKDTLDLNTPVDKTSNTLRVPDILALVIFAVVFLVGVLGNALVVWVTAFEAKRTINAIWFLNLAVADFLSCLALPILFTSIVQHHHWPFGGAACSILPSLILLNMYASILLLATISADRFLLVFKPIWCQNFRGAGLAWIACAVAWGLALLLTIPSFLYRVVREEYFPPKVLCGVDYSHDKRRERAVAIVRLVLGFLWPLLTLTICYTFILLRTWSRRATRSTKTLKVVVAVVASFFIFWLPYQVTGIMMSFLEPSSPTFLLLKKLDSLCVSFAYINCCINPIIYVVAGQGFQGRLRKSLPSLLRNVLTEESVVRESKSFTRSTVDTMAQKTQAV
Assay: chemotaxis assay (C5aR mediated migration)
Type: cell-based
Conditions: migration of U937 or neutrophil cells toward C5a (0.03 nM), 1.5 hours at 37° C., read-out: Mig IC50
Protocol: U937 cells are a monocytic cell line which express C5aR, and are available from ATCC (VA). […] Cells were grown under 5% CO2/95% air, 100% humidity at 37° C. and subcultured twice weekly at 1:6 (cells were cultured at a density range of 1×10^5 to 2×10^6 cells/mL) and harvested at 1×10^6 cells/mL. Prior to assay, cells are treated overnight with 0.5 mM of cyclic AMP (Sigma, Ohio) and washed once prior to use. cAMP treated U937 cells can be used in C5aR ligand binding and functional assays.
Optionally, human or murine neutrophils can be used to assay for compound activity. Neutrophils may be isolated from fresh human blood using density separation and centrifugation. Briefly, whole blood is incubated with equal parts 3% dextran and allowed to separate for 45 minutes. After separation, the top layer is layered on top of 15 mls of Ficoll (15 mls of Ficoll for every 30 mls of blood suspension) and centrifuged for 30 minutes at 400×g with no brake. The pellet at the bottom of the tube is then isolated and resuspended into PharmLyse RBC Lysis Buffer (BD Biosciences, San Jose, Calif.) after which the sample is again centrifuged for 10 minutes at 400×g with brake. The remaining cell pellet is resuspended as appropriate and consists of isolated neutrophils.
Optionally, compounds may be further assayed for their ability to inhibit chemotaxis in cells. Chemotaxis assays are performed using 5 μm pore polycarbonate, polyvinylpyrrolidone-coated filters in 96-well chemotaxis chambers (Neuroprobe; Gaithersburg, Md.) using chemotaxis buffer (Hank's balanced salt solution (HBSS) and 1% FBS). C5aR ligands (i.e., C5a, R&D Systems; Minneapolis, Minn.) are use to evaluate compound mediated inhibition of C5aR mediated migration. Other chemokines (i.e., SDF-1α; R&D Systems; Minneapolis, Minn.) are used as specificity controls. […] The chambers are incubated 1.5 hours at 37° C., and the number of cells in the lower chamber quantified either by direct cell counts in five high powered fields per well or by the CyQuant assay (Molecular Probes), a fluorescent dye method that measures nucleic acid content and microscopic observation.

| Structure (SMILES) | IC50 |
| --- | --- |
| CCc1cccc(CC)c1-n1nc2c(c1-c1ccc(C)c3[nH]ccc13)CN(c1ncc(C(F)(F)F)cc1F)CC2 [Example 1.181] | < 5 nM |
| Cc1cccc(OCC(C)C)c1-n1nc2c(c1-c1cc(F)c3[nH]ccc3c1)CN(c1ncc(C(F)(F)F)cc1F)CC2 [Example 1.218] | < 5 nM |
| CCc1cccc(CC)c1-n1nc2c(c1-c1ccc(Cl)c3[nH]ccc13)CN(c1nccc(C(F)(F)F)n1)CC2 [Example 1.138] | < 5 nM |
| Cc1cccc(OCC(C)C)c1-n1nc2c(c1-c1ccc3[nH]ccc3c1)CN(C(C)c1ccccc1C(F)(F)F)CC2 (centres unmarked) [Example 1.233] | < 5 nM |
| CCc1cccc(CC)c1-n1nc2c(c1-c1cccc3[nH]cnc13)CN(c1ncc(C(F)(F)F)cn1)CC2 [Example 1.043] | 5 to 50 nM |
| CCc1cccc(CC)c1-n1nc2c(c1-c1ccc(Cl)c3[nH]ccc13)CN(c1ncc(C(C)C)cn1)CC2 [Example 1.167] | < 5 nM |
| CCc1cccc(CC)c1-n1nc2c(c1-c1ccc(Cl)c3[nH]ncc13)CN(c1ncc(C3CC3)cn1)CC2 [Example 1.065] | < 5 nM |
| CCc1cccc(CC)c1-n1nc2c(c1-c1cc(F)c(Cl)c3[nH]ccc13)CN(c1ncc(C(F)(F)F)cn1)CC2 [Example 1.084] | < 5 nM |
| CCc1cccc(CC)c1-n1nc2c(c1-c1cc(F)c3[nH]ccc3c1)CN(c1ncc(C(F)(F)F)cc1F)CC2 [Example 1.083] | 5 to 50 nM |
| CCc1cccc(CC)c1-n1nc2c(c1-c1ccc(OC)c3[nH]ncc13)CN(c1ncc(C(F)(F)F)cc1F)CC2 [Example 1.052] | 5 to 50 nM |
| CCc1cccc(CC)c1-n1nc2c(c1-c1c(F)cc(Cl)c3[nH]ccc13)CN(c1ncc(C(=O)N3CCCC3)cn1)CC2 [Example 1.076] | < 5 nM |
| CCc1cccc(CC)c1-n1nc2c(c1-c1cc(F)c(OC)c3[nH]c(Cl)nc13)CN(c1ncc(C(F)(F)F)cn1)CC2 [Example 1.021] | 50 to 500 nM |
| CCc1cccc(CC)c1-n1nc2c(c1-c1ccc3[nH]ccc3c1)CN(Cc1ccccc1C(F)(F)F)CC2 [Example 1.231] | < 5 nM |
| CCc1cccc(CC)c1-n1nc2c(c1-c1ccc(C)c3[nH]ccc13)CN(c1ccc(C(F)(F)F)cn1)CC2 [Example 1.142] | < 5 nM |
| CCc1cccc(CC)c1-n1nc2c(c1-c1ccc(F)c3[nH]ccc13)CN(c1ncc(C3CC3)cc1F)CC2 [Example 1.175] | < 5 nM |
| CCc1cccc(CC)c1-n1nc2c(c1-c1ccc(Cl)c3[nH]ccc13)CN(c1ncc(C)c(C(=O)O)n1)CC2 [Example 1.075] | 50 to 500 nM |
| CCc1cccc(CC)c1-n1nc2c(c1-c1ccc3[nH]ccc3c1)CN(Cc1cc(Cl)ccc1C(F)(F)F)CC2 [Example 1.226] | < 5 nM |

| Structure (SMILES) | IC50 |
| --- | --- |
| CCc1cccc(CC)c1-n1nc2c(c1-c1c(F)cnc3[nH]ccc13)CN(c1ncc(C(F)(F)F)cn1)CC2 [Example 1.014] | 5 to 50 nM |
| CCc1cccc(CC)c1-n1nc2c(c1-c1cc(F)c(C)c3[nH]ccc13)CN(c1ncc(C(C)C)cn1)CC2 [Example 1.115] | < 5 nM |
| CCc1cccc(CC)c1-n1nc2c(c1-c1cncc3[nH]ccc13)CN(c1ncc(C(F)(F)F)cn1)CC2 [Example 1.022] | 50 to 500 nM |
| COc1c(F)cc(-c2c3c(nn2-c2c(C)cccc2F)CCN(c2ncc(C(F)(F)F)cn2)C3)c2cc[nH]c12 [Example 1.002] | 5 to 50 nM |
| CCc1cccc(CC)c1-n1nc2c(c1-c1ccc(Cl)c3[nH]ccc13)CN(c1nccc(N)n1)CC2 [Example 1.129] | 50 to 500 nM |
| CCc1cccc(CC)c1-n1nc2c(c1-c1ccc(Cl)c3[nH]ccc13)CN(C(=O)Nc1ccccc1)CC2 [Example 1.149] | 5 to 50 nM |
| CCc1cccc(CC)c1-n1nc2c(c1-c1ccc(C(=O)N(C)C)c3[nH]ccc13)CN(c1ncc(C(F)(F)F)cn1)CC2 [Example 1.047] | 50 to 500 nM |
| CCc1cccc(CC)c1-n1nc2c(c1-c1ccc(Cl)c3[nH]ccc13)CN(c1ncc(C(C)C)cc1F)CC2 [Example 1.152] | < 5 nM |
| CCc1cccc(CC)c1-n1nc2c(c1-c1c(F)cc(CO)c3[nH]ccc13)CN(c1ccc(C(F)(F)F)cn1)CC2 [Example 1.100] | < 5 nM |
| CCc1cccc(CC)c1-n1nc2c(c1-c1ccc(CO)c3[nH]ccc13)CN(c1ncc(C(F)(F)F)cc1F)CC2 [Example 1.174] | < 5 nM |
| Cc1cccc(OCC(C)C)c1-n1nc2c(c1-c1ccc3[nH]ccc3c1)CN(C(C)CC(F)(F)F)CC2 (centres unmarked) [Example 1.206] | 5 to 50 nM |
| CCc1cccc(CC)c1-n1nc2c(c1-c1cc(F)c(OC)c3[nH]c(F)nc13)CN(c1ncc(C(F)(F)F)cn1)CC2 [Example 1.019] | 5 to 50 nM |
| CCc1cccc(CC)c1-n1nc2c(c1-c1cc(Cl)c(C)c3[nH]ccc13)CN(c1ncc(C(F)(F)F)cn1)CC2 [Example 1.081] | < 5 nM |
| CCc1cccc(CC)c1-n1nc2c(c1-c1cc(F)c(OC)c3[nH]c(CO)nc13)CN(c1ncc(C(F)(F)F)cn1)CC2 [Example 1.028] | > 500 nM |
| Cc1cccc(OCC(C)C)c1-n1nc2c(c1-c1ccc3[nH]ccc3c1)CN(C(C)(C)c1ccccc1)CC2 [Example 1.199] | < 5 nM |
| CCc1cccc(CC)c1-n1nc2c(c1-c1ccc(OC)c3[nH]ccc13)CN(c1ncc(C(F)(F)F)cc1F)CC2 [Example 1.089] | 5 to 50 nM |

Further lines, results first:

| IC50 | Structure (SMILES) |
| --- | --- |
| 5 to 50 nM | COc1cnc(N2CCc3nn(-c4c(C)cccc4C)c(-c4ccc(C)c5[nH]ccc45)c3C2)nc1 [Example 1.114] |
| < 5 nM | CCc1cccc(CC)c1-n1nc2c(c1-c1ccc(Cl)c3[nH]ccc13)CN(c1ncc(C3CC3)cc1F)CC2 [Example 1.071] |
| < 5 nM | Cc1cccc(OCC(C)C)c1-n1nc2c(c1-c1ccc3[nH]ccc3c1)CN(c1ncc(C(F)(F)F)cc1F)CC2 [Example 1.232] |
| 5 to 50 nM | Cc1cccc(C)c1-n1nc2c(c1-c1ccc3[nH]ccc3c1F)CN(c1ncc(Cl)cc1Cl)CC2 [Example 1.195] |
| 5 to 50 nM | CCc1cccc(CC)c1-n1nc2c(c1-c1ccc3[nH]cc(Cl)c3c1)CN(Cc1cc(F)ccc1Cl)CC2 [Example 1.220] |
| 5 to 50 nM | Cc1cccc(C)c1-n1nc2c(c1-c1ccc(C)c3[nH]ccc13)CN(c1ncc(C(F)(F)F)cc1F)CC2 [Example 1.108] |
| < 5 nM | Cc1cccc(C)c1-n1nc2c(c1-c1c(F)cc(Cl)c3[nH]ccc13)CN(c1ccc(C(C)C)cn1)CC2 [Example 1.106] |
| 50 to 500 nM | Cc1cccc(C)c1-n1nc2c(c1-c1cc3cc[nH]c3cc1F)CN(c1ncc(Cl)cc1Cl)CC2 [Example 1.193] |
| 5 to 50 nM | COc1c(F)cc(-c2c3c(nn2-c2c(C)cccc2C)CCN(c2ncc(C(F)(F)F)cn2)C3)c2cc[nH]c12 [Example 1.004] |
| 5 to 50 nM | Cc1cnc(N2CCc3nn(-c4c(C)cccc4C)c(-c4ccc(Cl)c5[nH]ccc45)c3C2)nc1 [Example 1.154] |
| 5 to 50 nM | Cc1cccc(C)c1-n1nc2c(c1-c1ccc3[nH]ccc3c1)CN(Cc1ccccc1C(F)(F)F)CC2 [Example 1.221] |
| < 5 nM | Cc1cccc(C)c1-n1nc2c(c1-c1c(F)cc(C)c3[nH]ccc13)CN(c1ncc(C(F)(F)F)cn1)CC2 [Example 1.092] |
| 5 to 50 nM | Cc1cccc(C)c1-n1nc2c(c1-c1ccc(C)c3[nH]ccc13)CN(c1ncc(C(F)(F)F)cn1)CC2 [Example 1.107] |
| 50 to 500 nM | Cc1cccc(C)c1-n1nc2c(c1-c1cc(Cl)c3[nH]ccc3c1)CN(c1ncc(Cl)cc1Cl)CC2 [Example 1.191] |
| 50 to 500 nM | Cc1cccc(C)c1-n1nc2c(c1-c1cc(F)c3[nH]ccc3c1)CN(c1ncc(Cl)cc1Cl)CC2 [Example 1.194] |
| < 5 nM | CCc1cccc(CC)c1-n1nc2c(c1-c1ccc(Cl)c3[nH]ccc13)CN(c1ncc(Cl)cn1)CC2 [Example 1.160] |
| 5 to 50 nM | Cc1cccc(C)c1-n1nc2c(c1-c1ccc(Cl)c3[nH]ccc13)CN(c1ncc(Cl)cn1)CC2 [Example 1.155] |
| 5 to 50 nM | Cc1cccc(C)c1-n1nc2c(c1-c1c(F)cc(CO)c3[nH]ccc13)CN(c1ncc(C(F)(F)F)cn1)CC2 [Example 1.090] |
| < 5 nM | Cc1cccc(OCC(C)C)c1-n1nc2c(c1-c1ccc3[nH]ccc3c1)CN(c1ncc(Cl)cc1Cl)CC2 [Example 1.200] |
| > 500 nM | Cc1cccc(C)c1-n1nc2c(c1-c1ccc3[nH]cc(C#N)c3c1)CN(c1ncc(Cl)cc1Cl)CC2 [Example 1.190] |
